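Five concentrations, 48 hours, 96-well plates. Here, GI50 denotes the concentration required for 50% inhibition of growth. At the TGI there is no net growth.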
Legend:
Experiment in all cases: NCI anticancer screen, dose series, 48 h
RPMI-8226 leukemia = system: RPMI-8226 leukemia
UACC-257 melanoma = system: UACC-257 melanoma
RXF 393 renal = system: RXF 393 renal
UO-31 renal = system: UO-31 renal
MALME-3M melanoma = system: MALME-3M melanoma
MDA-MB-435 = system: MDA-MB-435
A549 NSCLC = system: A549 NSCLC
OVCAR-8 ovarian = system: OVCAR-8 ovarian
SN12C renal = system: SN12C renal
HOP-92 NSCLC = system: HOP-92 NSCLC

SMILES | TGI (RPMI-8226 leukemia) [µM] | TGI (UACC-257 melanoma) [µM] | TGI (RXF 393 renal) [µM] | TGI (UO-31 renal) [µM] | TGI (MALME-3M melanoma) [µM] | TGI (MDA-MB-435) [µM] | TGI (A549 NSCLC) [µM] | TGI (OVCAR-8 ovarian) [µM] | TGI (SN12C renal) [µM] | GI50 (RPMI-8226 leukemia) [nM] | GI50 (UACC-257 melanoma) [µM] | GI50 (HOP-92 NSCLC) [nM] | TGI (HOP-92 NSCLC) [µM] | GI50 (RXF 393 renal) [nM] | GI50 (UO-31 renal) [µM] | GI50 (MALME-3M melanoma) [nM] | GI50 (MDA-MB-435) [nM] | GI50 (A549 NSCLC) [nM] | GI50 (OVCAR-8 ovarian) [µM] | GI50 (SN12C renal) [nM]
CCCOC(=O)C1C2CCC(O2)C1C(=O)O (stereo not given) | > 100 | > 100 | > 100 | > 100 | > 100 | > 100 | > 100 | > 100 | > 100 | – | – | – | – | – | – | – | – | – | – | –
O=C(Nc1cccc(C(F)(F)F)c1)c1cc2ccccc2cc1O | 2.15 | > 24.7 | > 30.4 | > 22.1 | 6.74 | 4.72 | > 61.6 | > 31.3 | > 100 | 354 | 2.97 | 252 | 1.61 | 3300 | 1.12 | 1150 | 1370 | 2700 | 3.7 | 1490
Cc1cc2nc3c4ccc(Br)cc4n(CCN(C)C)c3nc2cc1C | 5.93 | 3.91 | 3.01 | 9.5 | 2.92 | 3.04 | 10.3 | 11.8 | 6.18 | 2160 | 1.88 | 1300 | 5.28 | 1310 | 0.561 | 1440 | 1680 | 1160 | 1.24 | 1100
COc1cc(/C=N/NC(=O)c2ccccc2Nc2cccc(C(F)(F)F)c2)cc(OC)c1OC | > 22.7 | 15.4 | 5.87 | 21.5 | 8.45 | 1.67 | 10.8 | 11.6 | 15.4 | 754 | 4.36 | – | – | 2350 | 6.11 | 1750 | 476 | 3600 | 4.81 | 5940
COc1cc2c(cc1OCCCOc1ccc(-c3nc4ccc(N5CCN(C)CC5)cc4[nH]3)cc1)N=C[C@@H]1CCCN1C2=O | < 0.01 | – | < 0.01 | – | < 0.01 | < 0.01 | < 0.0222 | < 0.01 | < 0.01 | < 10 | – | – | – | < 10 | – | < 10 | < 10 | < 10 | < 0.01 | < 10
C=CC(C)(O)CC/C=C(\CO)C(=O)OC1C(C)OC(O[C@](C)(C=C)CC/C=C(\CO)C(=O)O[C@H]2C[C@@]3(C(=O)OC4OC(CO)C(O)C(O)C4OC4OC(C)C(OC5OC(CO)C(O)C5O)C(OC5OC(CO)C(O)C(O)C5O)C4O)C(CC2(C)C)C2=CCC4[C@@]5(C)CC[C@H](OC6OC(COC7OC(C)C(O)C(O)C7OC7OCC(O)C(O)C7O)C(O)C(O)C6NC(C)=O)C(C)(C)C5CC[C@@]4(C)[C@]2(C)C[C@H]3O)C(O)C1O (stereo not given in full) | 18 | 1.47 | 4.03 | 0.966 | 1.01 | 0.382 | 1.49 | 6.45 | 0.343 | 5000 | 0.461 | 73.6 | 0.794 | 754 | 0.234 | 261 | 97.8 | 286 | 0.372 | 79.8
CC(C)N1C(C)[C@@H](c2ccccc2)O[P@]1(=O)CC1=CCCCC1 (stereo not given in full) | > 100 | > 100 | > 100 | > 100 | > 100 | – | > 100 | > 100 | > 100 | – | – | – | 99.6 | – | – | – | – | – | – | –
COc1cc(C(C#N)NNc2nc(C)cc(=O)[nH]2)cc(OC)c1OC (stereo not given) | > 100 | > 100 | > 100 | > 100 | > 100 | – | > 100 | > 100 | > 100 | – | – | – | > 100 | – | – | – | – | – | – | –
CC(C)(C)Sc1nnc(SC(C)(C)C)c2c(=O)[nH]nc(SC(C)(C)C)c12 | 12.2 | 26.7 | 14.2 | 19.7 | 26.2 | – | 17.9 | 22.1 | 21.9 | – | – | – | 14.1 | – | – | – | – | – | – | –
Cc1noc(/N=C2\C=C(Nc3onc(C)c3C)C(=O)c3ccccc32)c1C | > 100 | > 100 | > 100 | > 100 | > 100 | – | > 100 | > 100 | > 100 | – | – | – | > 100 | – | – | – | – | – | – | –
c1ccc(-c2nnc3nn4c(-c5ccccc5)cnnc4c3c2-c2ccccc2)cc1 | > 100 | > 100 | 46.3 | 75.1 | > 100 | – | > 100 | > 100 | > 100 | – | – | – | > 100 | – | – | – | – | – | – | –
COCCN1C(=O)C2c3[nH]c4ccccc4c3C3CCC(C(C)(C)C)CC3C2C1=O (stereo not given) | 39.5 | 31.8 | 43.1 | 27.2 | – | 36.9 | 39.5 | 46 | 32.9 | – | – | – | – | – | – | – | – | – | – | –
O=S1(=O)c2ccccc2N=C(c2ccccc2Cl)CC1c1ccc(F)cc1 (stereo not given) | 14.4 | 24.7 | 20.1 | 28.6 | 36.8 | – | 47.4 | 48.3 | 29.1 | – | – | – | 34.6 | – | – | – | – | – | – | –
CN1CCN(c2ccc3nc(-c4ccc(OCCCCN5CCN(CCCCN6C(=O)c7cccc8cccc(c78)C6=O)CC5)cc4)[nH]c3c2)CC1 | > 100 | 74.7 | – | > 100 | 42.6 | > 100 | > 100 | > 100 | – | 33900 | 30.3 | 71400 | > 100 | – | 58.4 | 20900 | 41000 | > 100000 | 48.6 | –
O=C1CCC(=O)c2sccc2N1 | > 100 | > 100 | > 100 | > 100 | > 100 | – | > 100 | > 100 | > 100 | – | – | – | > 100 | – | – | – | – | – | – | –
C/C(=N/O)c1ccc(Nc2cc(-n3ccnc3)c3ccccc3n2)cc1 | 4.42 | 9.35 | – | > 100 | 44.5 | > 100 | 36.4 | 25.5 | > 100 | 716 | 3.77 | 38300 | > 100 | – | 15.3 | 11400 | 36400 | 7210 | 6.01 | 39500
O=C(Cc1ccccc1)NN1C(=O)/C(=C\c2ccccc2O)SC1=Nc1ccccc1 | > 100 | > 100 | > 100 | > 100 | – | > 100 | > 100 | > 100 | > 100 | – | – | – | > 100 | – | – | – | – | – | – | –
